The source of these data is patent US20230148450A9, “BICYCLIC HETEROARYL COMPOUNDS AND USES THEREOF” (Revolution Medicines, Inc., priority 2019, published 2023).

Assay [1] concerns the target T1, SOS1 catalytic domain (residues 564-1049) (Homo sapiens, UniProt Q07889).
T1 construct: SOS1 catalytic domain (residues 564-1049) immobilized on a sensor chip
T1 sequence (Q07889 564-1049): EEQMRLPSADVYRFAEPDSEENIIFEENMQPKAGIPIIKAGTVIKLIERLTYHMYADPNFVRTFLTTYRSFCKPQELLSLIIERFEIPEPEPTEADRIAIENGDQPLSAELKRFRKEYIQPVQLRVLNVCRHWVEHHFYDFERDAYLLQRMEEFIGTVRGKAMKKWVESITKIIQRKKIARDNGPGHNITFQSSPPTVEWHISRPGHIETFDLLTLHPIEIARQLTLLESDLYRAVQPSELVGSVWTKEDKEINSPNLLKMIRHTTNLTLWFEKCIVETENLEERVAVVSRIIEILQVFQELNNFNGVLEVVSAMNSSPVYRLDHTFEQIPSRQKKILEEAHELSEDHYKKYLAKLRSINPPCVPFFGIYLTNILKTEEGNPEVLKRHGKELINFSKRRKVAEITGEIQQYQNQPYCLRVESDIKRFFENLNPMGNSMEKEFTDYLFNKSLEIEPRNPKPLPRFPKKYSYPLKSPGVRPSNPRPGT
Put plainly: Binding affinity to SOS1 using Surface Plasmon Resonance (SPR). Particulars: avi-tagged SOS1 catalytic domain immobilized on sensor chip; read-out: SOS1 SPR Equilibrium Kd. From the text:
Potency Assay: Measurement of the Binding Affinity of Compounds of the Invention to SOS! using Surface Plasmon Resonance (SPR)
The purpose of the SPR assay was to measure the direct binding of compounds to SOS1 catalytic domain (residues 564-1049) immobilized on a sensor chip. Data was reported as equilibrium dissociation constant (Kd) values.
Using a GE Biacore 8K SPR instrument, avi-tagged SOS1 catalytic domain protein was immobilized to a level of approximately 6000 response units (RU) on a streptavidin-coated SPR sensor chip in assay buffer containing 0.01 M HEPES, 0.15 M NaCl and 0.05% v/v Surfactant P20. In assay buffer containing 2% DMSO, concentration series of test compounds were generated spanning 5 μM to 4.9 nM over ten 2-fold dilutions. For each test compound, a separate 0 μM sample was generated for use during subsequent double reference subtraction. Serially for each test compound, individual dilution samples were flowed over the immobilized SOS1 protein at a flow rate of 50 μL/minute to monitor the association with SOS1. Dissociation of bound test compound from the SOS1 protein was immediately monitored by flowing assay buffer over the sensor surface and monitoring the decrease in binding signal back to the baseline level seen in the absence of compound. This was repeated for all compound dilutions in each series. The binding level response for each test compound concentration was noted immediately prior to the end of the association phase, and a secondary plot generated showing binding response level versus test compound concentration generated for each compound dilution series.

Assay [2] deals with cellular pERK in PC-9 cells (EGFR Ex19Del). Put plainly: Potency Assay: pERK. The assay is classed as cell-based. To be noted: Homo sapiens, read-out: SOS1 pERK IC50. The text has this: The purpose of this assay is to measure the ability of test compounds to inhibit SOS1 function in cells. SOS1 activates RAS proteins by catalyzing the conversion of […] to […] in response to receptor tyrosine kinase activation. Activation of RAS induces a sequence of cellular signaling events that results in increased phosphorylation of ERK at […] (pERK). The procedure described below measures the level of cellular pERK in response to test compounds in PC-9 cells (EGFR Ex[…]). PC-9 cells were grown and maintained using media and procedures recommended by the ATCC. On the day prior to compound addition, cells were plated in 384-well cell culture plates (40 μL/well) and grown overnight in a 37° C., 5% CO2 incubator. Test compounds were prepared in 10, 3-fold dilutions in DMSO, with a top concentration of 10 mM. On the day of the assay, 40 nL of test compound was added to each well of cell culture plate using an Echo550 liquid handler (LabCyte). Concentrations of test compound were tested in duplicate with highest test concentration being 10 μM. After compound addition, cells were incubated for 1 hour at 37° C., 5% CO2. Following incubation, culture medium was removed and cells were washed once with phosphate buffered saline. Cellular pERK level was determined using the AlphaLISA SureFire Ultra p-ERK1/2 Assay Kit (PerkinElmer). Cells were lysed in 25 μL lysis buffer, with shaking at 600 RPM at room temperature for 15 minutes. Lysate (10 μL) was transferred to a 384-well Opti-plate (PerkinElmer) and 5 μL acceptor mix was added. The plate was centrifuged at 1000 RPM for 1 minute, and incubated in the dark for 2 hours. Following this incubation, 5 μL of donor mix was added, the plate was sealed and centrifuged at 1000 RPM for 1 minute, and the mixture was incubated for 2 hours at room temperature. Signal was read on an Envision plate reader (PerkinElmer) using standard AlphaLISA settings. Analysis of raw data was carried out in Excel (Microsoft) and Prism (GraphPad). Signal was plotted vs. the decadal logarithm of compound concentration, and IC50 was determined by fitting a 4-parameter sigmoidal concentration response model.

In assay [3] the target is T2, SOS1 nucleotide exchange of KRAS (catalytic domain of SOS1, residues 564-1049; wild-type KRAS) (Homo sapiens, UniProt Q07889).
T2 construct: tagless catalytic domain of SOS1 (residues 564-1049)
T2 sequence (Q07889 564-1049): T1 sequence (Q07889 564-1049)
Kind of assay: Mode of Action Assay: Inhibition of SOS1 Nucleotide Exchange Activity (TR-FRET). The assay is classed as biochemical. Particulars: TR-FRET signal. The procedure: The purpose of this assay was to characterize the inhibitory activity of compounds on SOS1 nucleotide exchange of KRAS. Data was reported as IC50 values based on the TR-FRET signal.
Note—the following protocol describes a procedure for monitoring the inhibition of SOS1 nucleotide exchange activity of wild-type KRAS in response to a compound of the invention. Other KRAS mutants and RAS isoforms maybe employed.
In assay buffer containing 20 mM HEPES, pH 7.5, 150 mM NaCl, 5 mM MgCl2, 0.05% Tween-20, 0.1% BSA, 1 mM DTT, concentration series of test compounds were generated spanning 100 μM to 1.7 nM over eleven 3-fold serial dilutions in a 384-well assay plate at a volume of 20 μL. The purified tagless catalytic domain of SOS1 (residues 564-1049) was first diluted in assay buffer at a concentration of 100 nM, and then 20 μL of the SOS1 containing solution was directly dispensed into compound plates. The SOS1/compound mixture was incubated at room temperature with constant mixing on an orbital shaker for 20 minutes to allow the reaction to reach equilibrium. A KRAS mixture was prepared by diluting 66.7 nM avi-tagged KRAS (residue 1-169), 3.33 nM Streptavidin-Tb and 333 nM EDA-GTP-DY-647P1 in assay buffer. This mixture was prepared immediately before addition to the SOS1/compound mixture to prevent intrinsic nucleotide exchange. Then 5 μL of the pre-incubated SOS1/compound mixture and 7.5 μL of the KRAS mixture were added sequentially in a 384-well low volume black round bottom plate and incubated at room temperature with constant shaking for 30 minutes. Time-resolved fluorescence was measured on a PerkinElmer Envision plate reader. DMSO and 10 μM of compound (i) were used as negative and positive controls, respectively.
Three replicates were performed for each compound. Data were normalized by the following: (Positive control—Sample signal)/(Positive control—negative control)*100. The data were fit using a four-parameter logistic fit.
(Time-resolved FRET reads energy transfer from a long-lived donor to a nearby acceptor.)

Setting [4] is: PC-9 cells (EGFR Ex19Del), 1 hour incubation, AlphaLISA p-ERK1/2.

Read-outs that look alike come from different tables or passages of the source. A value given as a limit tells only on which side of the number the result lay.

With `CNCc1cc2c(N[C@H](C)c3cc(N)cc(C(F)(F)F)c3)nc(C)nn2c1` [Example 28, N-[(1R)-1-[3-amino-5-(trifluoromethyl)phenyl]ethyl]-2-methyl-6-(methylaminomethyl)pyrrolo[2,1-f][1,2,4]triazin-4-amine], the Kd in assay [1] was greater than 400 nM. Moreover, in assay [2] (setting [4]), the IC50 was less than 1000 nM.
On to `C[C@@H](Nc1nc(Cl)cn2cc(C(=O)N3CCOCC3)nc12)c1cc(N)cc(C(F)(F)F)c1` [Example 29, [8-[[(1R)-1-[3-amino-5-(trifluoromethyl)phenyl]ethyl]amino]-6-chloro-imidazo[1,2-a]pyrazin-2-yl]-morpholino-methanone], for which the IC50 in assay [3] and in assay [2] (setting [4]) was greater than 1000 nM throughout. In assay [1], the Kd is greater than 400 nM.
For the molecule `COc1cc2c(N[C@H](C)c3cc(N)cc(C(F)(F)F)c3)nc(C)nn2c1` [Example 30, N-[(1R)-1-[3-amino-5-(trifluoromethyl)phenyl]ethyl]-6-methoxy-2-methyl-pyrrolo[2,1-f]-[1,2,4]triazin-4-amine], the Kd in assay [1] is greater than 400 nM. Moreover, the IC50 in assay [2] (setting [4]) was greater than 1000 nM.
Take `C[C@@H](Nc1ncnc2cc(C(=O)N3CCOCC3)sc12)c1cc(N)cc(C(F)(F)F)c1` [Example 31, [4-[[(1R)-1-[3-amino-5-(trifluoromethyl)phenyl]ethyl]amino]thieno[3,2-d]pyrimidin-6-yl]-morpholino-methanone]: the IC50 in assay [3] and in assay [2] (setting [4]) was greater than 1000 nM each time. Further, in assay [1], the Kd is no more than 400 nM.
Turning to `Cc1nc(N[C@H](C)c2cc(N)cc(C(F)(F)F)c2)c2cc(C(=O)N3CC(O)C3)cn2n1` [Example 33, [4-[[(1R)-1-[3-amino-5-(trifluoromethyl)phenyl]ethyl]amino]-2-methyl-pyrrolo[2,1-f][1,2,4]triazin-6-yl]-(3-hydroxyazetidin-1-yl)methanone], the IC50 in assay [3] and in assay [2] (setting [4]) was less than 1000 nM throughout. For the same molecule, in assay [1], the Kd was greater than 400 nM.
As to `Cc1nc(N[C@H](C)c2cc(N)cc(C(F)(F)F)c2)c2cc(C3(O)CC(O)C3)cn2n1` (stereo partly drawn) [Example 35, (R)-1-(4-((1-(3-amino-5-(trifluoromethyl)phenyl)ethyl)amino)-2-methylpyrrolo[2,1-f][1,2,4]triazin-6-yl)cyclobutane-1,3-diol], the IC50 in assay [3] and in assay [2] (setting [4]) was greater than 1000 nM in each case. The dissociation constant (Kd) in assay [1] is no more than 400 nM.
As for `Cc1nc(N[C@H](C)c2cc(N)cc(C(F)(F)F)c2)c2cc(C(=O)N3CCN(C)CC3)cn2n1` [Example 36, (R)-(4-((1-(3-amino-5-(trifluoromethyl)phenyl)ethyl)amino)-2-methylpyrrolo[2,1-f][1,2,4]triazin-6-yl)(4-methylpiperazin-1-yl)methanone], the IC50 in assay [3] and in assay [2] (setting [4]) was less than 1000 nM in each case. In assay [1], the Kd was no more than 400 nM.
Consider `Cc1nc(N[C@H](C)c2cc(N)cc(C(F)(F)F)c2)c2cc(C(=O)N3CCN(C)CC3)n(C)c2n1` [Example 37, [4-[[(1R)-1-[3-amino-5-(trifluoromethyl)phenyl]ethyl]amino]-2,7-dimethyl-pyrrolo[2,3-d]pyrimidin-6-yl]-(4-methylpiperazin-1-yl)methanone], for which the half-inhibitory concentration (IC50) in assay [3] and in assay [2] (setting [4]) was greater than 1000 nM each time. Besides, the Kd in assay [1] is greater than 400 nM.
`C[C@@H](Nc1nc(Cl)nc2c1cc(C1=CCNCC1)n2C)c1cc(N)cc(C(F)(F)F)c1` [Example 39, N-[(1R)-1-[3-amino-5-(trifluoromethyl)phenyl]ethyl]-2-chloro-7-methyl-6-(1,2,3,6-tetrahydropyridin-4-yl)pyrrolo[2,3-d]pyrimidin-4-amine]: the half-inhibitory concentration (IC50) in assay [3] and in assay [2] (setting [4]) was greater than 1000 nM each time. Further, the dissociation constant Kd in assay [1] was no more than 400 nM.
With `CNCc1ccccc1-c1ccc(C(C)Nc2nc(C)nn3cc(C4=CCNCC4)cc23)s1` (centres unmarked) [Example 40, 2-methyl-N-[1-[5-[2-(methylaminomethyl)phenyl]-2-thienyl]ethyl]-6-(1,2,3,6-tetrahydropyridin-4-yl)pyrrolo[2,1-f][1,2,4]triazin-4-amine], the half-maximal inhibitory concentration (IC50) in assay [3] and in assay [2] (setting [4]) was greater than 1000 nM throughout. Moreover, the Kd in assay [1] was no more than 400 nM.
Take `Cc1nc(N[C@H](C)c2cc(N)cc(C(F)(F)F)c2)c2cc(C(=O)N3CCOCC3)cn2n1` [Example 41, [4-[[(1R)-1-[3-amino-5-(trifluoromethyl)phenyl]ethyl]amino]-2-methyl-pyrrolo[2,1-f][1,2,4]triazin-6-yl]morpholino-methanone]: the IC50 in assay [3] and in assay [2] (setting [4]) was less than 1000 nM in each case. The Kd in assay [1] was no more than 400 nM.
In the case of `C[C@@H](Nc1cc(Cl)nc2nc(C(=O)N3CCOCC3)cn12)c1cc(N)cc(C(F)(F)F)c1` [Example 48, [5-[[(1R)-1-[3-amino-5-(trifluoromethyl)phenyl]ethyl]amino]-7-chloro-imidazo[1,2-a]pyrimidin-2-yl]-morpholino-methanone], the Kd in assay [1] is greater than 400 nM. In assay [2] (PC-9, 1 h), the 50% inhibitory concentration (IC50) is less than 1000 nM.
For `Cc1nc(N[C@H](C)c2cc(N)cc(C(F)(F)F)c2)c2cc([C@]3(O)CC[C@H](C(=O)N(C)C)CC3)cn2n1` [Example 66, 4-[4-[[(1R)-1-[3-amino-5-(trifluoromethyl)phenyl]ethyl]amino]-2-methyl-pyrrolo[2,1-f][1,2,4]triazin-6-yl]-4-hydroxy-N,N-dimethylcyclohexanecarboxamide], in assay [1], the Kd is no more than 400 nM. Also, the IC50 in assay [2] (setting [4]) is greater than 1000 nM.

In general, Kd refers to the concentration at which binding is half-saturated. In general, IC50 refers to the midpoint of a concentration-inhibition curve.
